Structures are written as SMILES. Entries after “also recorded” stand apart in the source; their conditions may differ.

The values that follow come from patent US5559092A, “Cosmetic composition” (Chesebrough-Pond's USA Co. Division of Conopco, Inc., priority 1992, dated 1996).

The test system of data set [1] is isolated human hair follicles. The data set is described as follows: in vitro hair follicle growth test (elongation of isolated human hair follicles in culture medium). The format is cell-based. As to the method:
The effect of compounds on hair growth was assessed using an in vitro test which measures the elongation of isolated human hair follicles in a culture medium.
This test includes the important step of isolating hair follicles having an undamaged hair bulb from human skin, for example, facelift skin, by microdissection.
The critical step of separating the hair follicle with intact undamaged hair bulb from the subcutaneous fatty tissue in which it is situated accordingly involves severing the hair shaft of the follicle at a point below the epidermis of skin surface, so as to leave the hair bulb intact and undamaged while still bearing a portion of the hair shaft.
Preferably, the hair shaft of the follicle is severed at the dermal-subcutaneous fat interface.
Any suitable cutting instrument can be employed to sever the hair shaft in this manner, but a keratotome or a scalpel are preferred.
The hair bulb with a hair Shaft stump attached is then isolated from the skin by mechanically separating the hair from loosely adhering subcutaneous fat which normally surrounds the hair bulb. This is achieved after the dermis or upper layer of the skin has been separated and removed, to avoid damaging the hair bulb as it is pulled away.
The hair bulb together with hair shaft stump attached, is then transferred in an otherwise undamaged and fully functioning, viable state to a nutrient medium.
The hair follicles isolated by the technique described herein are transferred to a suitable culture medium for subsequent testing of substances that can then influence their future development.
The procedure now to be described represents a preferred method of culture and testing of hair growth.
In accordance with the preferred method of culture, isolated hair follicles, […], are maintained in 1 ml of Williams E medium, either with or without a test hair growth substance, supplemented with […] (Penicillin and Streptomyein), Insulin (10 ng/ml) and Hydrocortisone (10 ng/ml). The medium was incubated at 37° C. in an atmosphere of 5% CO2 +95% air in individual wells of a 24 multiwell dish (Corning), which permits detailed measurements to be made of the length of individual hair follicles. The medium was refreshed once during the experiment after 4 days.
Williams E medium is available from FLOW Laboratory under Catalogue No. 12-502. […]
Daily growth rate and cumulative growth for each follicle were calculated by measuring the change in length of the follicles each day and from this the average of all the follicles was calculated.
The response of an isolated hair follicle to a test substance, can accordingly be assessed by measuring the increase in length, if any, in the presence of a test substance against a control. […]

The nature of data set [2]: storage stability in aqueous hair treatment composition (shampoo, conditioner or tonic). The format is physicochemical. The settings on record: ambient temperature, 3 months. The source says: From these observations, it was realised that the αNH2 group of glutamine should be protected in order to stablise the molecule.
Where [3] appears, read: 2 mM in Williams E medium & glucose.

With `NC(=O)CC[C@H](N)C(=O)O` [Glutamine, glutamine], in data set [1] (setting [3]), the “Amount of hair grown in one week” value is 2.02 mm and the “Average daily rate of growth of hair over one week” value was determined as 0.277 mm/d. The “potency as hair growth promoter after storage” value in data set [1] (after 3 months storage at 20° C.) was “diminished significantly”. For the same compound, the “effect on linear hair growth (in words)” value in data set [1] (isolated human follicles in vitro, compared with the control) is “potent promoter of linear hair growth; also recorded: significant increase in hair growth”. For the same compound, the “stability during storage in aqueous hair treatment composition” value in data set [2] is “a significant amount of the glutamine had been converted to pyroglutamic acid and ammonia”.
